What all share (format): cell-based
The subject of one data set is 3T3 cells. Briefly: Survival of 3T3 cells (model of mammalian cells) after photodynamic treatment. Particulars: red light 650-750 nm, 50 mW/cm^2, PBS +5% DMSO, 5 min pre-incubation. As to the method: (§1) The irradiation is carried out with red light (650-750 nm), 50 mW/cm^2.
In data set [1] the test system is Candida albicans (ATCC10231; yeast). The data set can be described thus: Photoinactivation of C. albicans, survival after photodynamic treatment. The note with it: 1 μM, red light 650-750 nm, 50 mW/cm^2, PBS +5% DMSO, 10 min pre-incubation.
Source text: (§2) The compounds synthesized have been assayed for their antifungal and antibacterial (Gram-positive e Gram-negative) activity. For the experiments the following micro-organisms were used: Candida albicans (ATCC10231; yeast), Staphylococcus aureus (ATCC 6538P, MRSA; Gram-positive), Escherichia coli (04; Gram-negative). All the micro-organisms were used in the experiments in a stationary state of growth. An example of experimental protocol used to assess the photoinactivation of micro-organisms is described as follows.
(§3) Cells in a stationary state of growth have been washed in physiological buffered saline solution (PBS) and diluted in order to obtain a cell suspension in the range 10^6÷10^9 cells/ml in PBS or appropriate medium.
(§4) Cell suspensions have then been treated with scalar aliquots of the photosensitising agent to be tested in the range 30÷0.01 μM, eventually as a photosensitizer conjugate. […] In order to determine the percentage of cell population after photoinactivation for each photosensitizer concentration, serially diluted samples resulting from the irradiation have been plated on Sabouraud Dextrose Agar (C. Albicans), on Tryptic Soy Agar (S. aureus), or on other suitable culture media and the data were compared with dark controls.
as §1

Data set [2] concerns Escherichia coli (04; Gram-negative). The data set can be described thus: Photoinactivation of E. coli, survival after photodynamic treatment. The note with it: red light 650-750 nm, 50 mW/cm^2, PBS +5% DMSO, 5 min pre-incubation.
Source text: as §2, §3, §4, §1

The test system of data set [3] is Staphylococcus aureus (ATCC 6538P, MRSA; Gram-positive). The data set can be described thus: Photoinactivation of S. aureus (MRSA), survival after photodynamic treatment. Particulars: red light 650-750 nm, 50 mW/cm^2, PBS +5% DMSO, 5 min pre-incubation.
Source text: as §2, §3, §4, §1

A further data set concerns erythrocytes. Briefly: Haemolytic properties, dark and light treatment. Particulars: for % Haemolysis (Light treatment) 30 J/cm^2 (50 mW/cm^2 × 10 min): light 30 J/cm^2 (50 mW/cm^2 × 10 min).

Here are results for two compounds from patent US7144879B2, “Substituted metal-phthalocyanines, their preparation and the use thereof” (L. Molteni & C. Dei Fratelli, priority 2000, dated 2006).

“2[1,3-bis-(trimethylammonium)2-propyloxy]zinc(II) phtalocyanine diiodide [Compound 18]”: the “Survival (%)” value in the data set with 3T3 cells (1 μM, irradiation 1 min) is listed as 100%; in the data set on 3T3 cells (1 μM, irradiation 5 min), 97%; with 3T3 cells (10 μM, irradiation 1 min) it was 100%; with 3T3 cells (10 μM, irradiation 5 min), 94%; in data set [1] (irradiation 1 min), 0.0001%; in data set [1] (irradiation 5 min) it was 0.0001%. Also, the “Survival (%)” value amounted to 100% in data set [2] (1 μM, irradiation 1 min); 100% in data set [2] (1 μM, irradiation 5 min); 100% in data set [2] (10 μM, irradiation 1 min); 2.34% in data set [2] (10 μM, irradiation 5 min); 0.0002% in data set [3] (1 μM, irradiation 1 min); 0.0001% in data set [3] (1 μM, irradiation 5 min). Moreover, the “Survival (%)” value is given as 0.0001% in data set [3] (10 μM, irradiation 1 min) and 0.0001% in data set [3] (10 μM, irradiation 5 min).
Consider `CN1CCC(Oc2ccc3c4[n]5c(c3c2)=NC2=NC(=Nc3c6ccccc6c([n]3[Zn]5)N=C3N=C(N=4)c4ccccc43)c3ccccc32)CC1` [Compound 4], for which the figures for the “% Haemolysis (Dark treatment)” value in the data set on erythrocytes (concentration 0.5 μM), in the data set on erythrocytes (concentration 1 μM) and in the data set with erythrocytes (concentration 5 μM) were 4.7%, 1.5% and 1.5%, respectively. The “% Haemolysis (Light treatment) 30 J/cm^2 (50 mW/cm^2 × 10 min)” value in the data set on erythrocytes (concentration 0.5 μM) is reported as 0.9%; in the data set with erythrocytes (concentration 1 μM) it was 1.2%; in the data set on erythrocytes (concentration 5 μM) it was 1.5%.
